Structures can show the parent of a compound that is named as a salt.
Tests used:
MNK1 = MNK1 (Homo sapiens, UniProt Q9BUB5); assay: MNK1 enzymatic assay; format: biochemical
MNK2 = MNK2 (Homo sapiens, UniProt Q9HBH9); assay: MNK2 enzymatic assay; format: biochemical
[1] = tested on: eIF4e phosphorylation in Hela cell line; assay: eIF4e phosphorylation inhibition in Hela cell line; format: cell-based; details: Homo sapiens, cellular

MNK2, sequence (Q9HBH9 whole entry): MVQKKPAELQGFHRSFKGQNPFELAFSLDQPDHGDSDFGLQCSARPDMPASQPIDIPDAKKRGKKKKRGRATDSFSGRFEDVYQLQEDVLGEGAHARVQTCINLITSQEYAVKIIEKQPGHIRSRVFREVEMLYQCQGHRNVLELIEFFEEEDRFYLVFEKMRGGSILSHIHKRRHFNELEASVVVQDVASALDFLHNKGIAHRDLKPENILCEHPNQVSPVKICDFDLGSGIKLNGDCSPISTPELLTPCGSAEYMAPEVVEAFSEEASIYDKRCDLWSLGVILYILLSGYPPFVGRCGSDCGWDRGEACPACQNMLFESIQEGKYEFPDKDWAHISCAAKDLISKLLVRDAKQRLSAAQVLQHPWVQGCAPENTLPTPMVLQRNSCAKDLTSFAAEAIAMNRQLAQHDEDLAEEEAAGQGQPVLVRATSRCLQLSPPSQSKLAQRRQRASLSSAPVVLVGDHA
MNK1, sequence (Q9BUB5 whole entry): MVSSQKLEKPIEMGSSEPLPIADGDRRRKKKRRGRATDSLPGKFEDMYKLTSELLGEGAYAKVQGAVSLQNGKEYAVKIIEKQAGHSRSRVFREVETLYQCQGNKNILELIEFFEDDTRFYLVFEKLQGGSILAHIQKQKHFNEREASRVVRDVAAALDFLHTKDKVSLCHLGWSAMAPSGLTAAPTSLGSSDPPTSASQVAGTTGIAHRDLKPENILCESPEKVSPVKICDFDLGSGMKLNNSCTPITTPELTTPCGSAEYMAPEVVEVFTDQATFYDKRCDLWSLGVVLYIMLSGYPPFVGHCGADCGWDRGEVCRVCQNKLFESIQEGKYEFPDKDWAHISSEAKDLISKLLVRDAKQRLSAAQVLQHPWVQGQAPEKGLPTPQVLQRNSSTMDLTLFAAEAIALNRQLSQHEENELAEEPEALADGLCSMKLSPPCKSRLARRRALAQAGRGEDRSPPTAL

| SMILES | IC50 (MNK1) | IC50 (MNK2) | IC50 [1] |
| --- | --- | --- | --- |
| O=C(c1ccc(-c2ccc3ncc(C#Cc4ccc(O)nc4)n3n2)cc1)N1CCOCC1 [Example 040, (4-(3-((6-hydroxypyridin-3-yl)ethynyl)imidazo[1,2-b]pyridazin-6-yl)phenyl) (morpholino)methanone] | < 0.5 µM | < 0.5 µM | < 5 µM |
| O=C(c1ccc(-c2ccc3ncc(C#Cc4ccnc(Nc5nccs5)c4)n3n2)cc1)N1CCOCC1 [Example 053, morpholino(4-(3-((2-(thiazol-2-ylamino)pyridin-4-yl)ethynyl)imidazo[1,2-b]pyridazin-6-yl)phenyl)methanone] | < 0.5 µM | < 0.5 µM | < 5 µM |
| Nc1cc(C#Cc2cnc3ccc(-c4ccc(C(=O)N5CCOCC5)cc4)cn23)c2cc[nH]c2n1 [Example 098, (4-(3-((6-amino-1H-pyrrolo[2,3-b]pyridin-4-yl)ethynyl)imidazo[1,2-a]pyridin-6-yl)phenyl)(morpholino)methanone] | < 0.5 µM | < 0.5 µM | < 5 µM |
| Cc1ccccc1C#Cc1cnc2ccc(-c3ccc(C(=O)N4CCN(C)CC4)cc3)nn12 [Example 001, (4-methylpiperazin-1-yl)(4-(3-(o-tolylethynyl)imidazo[1,2-b]pyridazin-6-yl)phenyl)methanone] | < 0.5 µM | < 0.5 µM | < 5 µM |
| CN1CCN(C(=O)c2ccc(-c3ccc4ncc(C#Cc5ccncc5)n4n3)cc2)CC1 [Example 005, (4-methylpiperazin-1-yl) (4-(3-(pyridin-4-ylethynyl)imidazo[1,2-b]pyridazin-6-yl)phenyl)methanone] | < 0.5 µM | < 0.5 µM | < 5 µM |
| O=C(c1ccc(-c2ccc3ncc(C#Cc4cnc5[nH]ccc5c4)n3n2)cc1)N1CCOCC1 [Example 023, (4-(3-((1H-pyrrolo[2,3-b]pyridin-5-yl)ethynyl)imidazo[1,2-b]pyridazin-6-yl)phenyl) (morpholino)methanone] | < 0.5 µM | < 0.5 µM | < 5 µM |
| Nc1cc(C#Cc2cnc3ccc(-c4ccc(C(=O)N5CCOCC5)cc4)cn23)ccn1 [Example 096] | < 0.5 µM | < 0.5 µM | < 5 µM |
| O=C(c1ccc(-c2ccc3ncc(C#Cc4ccnc5[nH]ncc45)n3n2)cc1)N1CCOCC1 [Example 016, (4-(3-((1H-pyrazolo[3,4-b]pyridin-4-yl)ethynyl)imidazo[1,2-b]pyridazin-6-yl)phenyl) (morpholino)methanone] | < 0.5 µM | < 0.5 µM | < 5 µM |
| O=C(Nc1cc(C#Cc2cnc3ccc(-c4ccc(C(=O)N5CCOCC5)cc4)nn23)ccn1)c1ccncc1 [Example 064, N-(4-((6-(4-(morpholine-4-carbonyl)phenyl)imidazo[1,2-b]pyridazin-3-yl)ethynyl)pyridin-2-yl)isonicotinamide] | < 0.5 µM | < 0.5 µM | < 5 µM |
| O=C(c1ccc(-c2ccc3ncc(C#Cc4cnc5cc[nH]c5c4)n3n2)cc1)N1CCOCC1 [Example 020, (4-(3-((1H-pyrrolo[3,2-b]pyridin-6-yl)ethynyl)imidazo[1,2-b]pyridazin-6-yl)phenyl) (morpholino)methanone] | < 0.5 µM | < 0.5 µM | < 5 µM |
| Nc1cc(C#Cc2cnc3ccc(-c4ccc(C(=O)N5CCOCC5)cc4)nn23)ccn1 [Example 034, (4-(3-((2-aminopyridin-4-yl)ethynyl)imidazo[1,2-b]pyridazin-6-yl)phenyl) (morpholino)methanone] | < 0.5 µM | < 0.5 µM | < 5 µM |
| O=C(c1ccc(-c2ccc3ncc(C#Cc4ccnc(Nc5cccnc5)c4)n3c2)cc1)N1CCNCC1 [Example 105, piperazin-1-yl(4-(3-((2-(pyridin-3-ylamino)pyridin-4-yl)ethynyl)imidazo[1,2-a]pyridin-6-yl)phenyl)methanone] | < 0.5 µM | < 0.5 µM | < 5 µM |
| O=C(c1ccc(-c2ccc3ncc(C#Cc4ccncc4)n3n2)cc1)N1CCOCC1 [Example 032] | < 0.5 µM | < 0.5 µM | < 5 µM |
| COc1cc(C#Cc2cnc3ccc(-c4ccc(C(=O)N5CCOCC5)cc4)nn23)ccn1 [Example 019, (4-(3-((2-methoxypyridin-4-yl)ethynyl)imidazo[1,2-b]pyridazin-6-yl)phenyl) (morpholino)methanone] | < 0.5 µM | < 0.5 µM | < 5 µM |
| Nc1cc(C#Cc2cnc3ccc(-c4ccc(C(=O)N5CCOCC5)cc4F)nn23)ccn1 [Example 122, (4-(3-((2-aminopyridin-4-yl)ethynyl)imidazo[1,2-b]pyridazin-6-yl)-3-fluorophenyl)(morpholino)methanone formate salt] | < 0.5 µM | < 0.5 µM | < 5 µM |
| O=C(c1ccc(-c2ccc3ncc(C#Cc4ccnc(Nc5cccnc5)c4)n3n2)cc1)N1CCOCC1 [Example 049, morpholino(4-(3-((2-(pyridin-3-ylamino)pyridin-4-yl)ethynyl)imidazo[1,2-b]pyridazin-6 yl)phenyl)methanone] | < 0.5 µM | < 0.5 µM | < 5 µM |

| SMILES | IC50 (MNK1) | IC50 (MNK2) | IC50 [1] |
| --- | --- | --- | --- |
| O=C(c1ccc(-c2ccc3ncc(C#Cc4cn[nH]c4)n3n2)cc1)N1CCOCC1 [Example 028, (4-(3-((1H-pyrazol-4-yl)ethynyl)imidazo[1,2-b]pyridazin-6-yl)phenyl)(morpholino)methanone] | < 0.5 µM | < 0.5 µM | < 5 µM |
| Cc1ccccc1Nc1cc(C#Cc2cnc3ccc(-c4ccc(C(=O)N5CCOCC5)cc4)nn23)ccn1 [Example 052, morpholino(4-(3-((2-(o-tolylamino)pyridin-4-yl)ethynyl)imidazo[1,2-b]pyridazin-6-yl)phenyl)methanone] | < 0.5 µM | < 0.5 µM | < 5 µM |
| NC(=O)c1ccc(-c2ccc3ncc(C#Cc4ccnc(N)c4)n3n2)cc1 [Example 074, 4-(3-((2-aminopyridin-4-yl)ethynyl)imidazo[1,2-b]pyridazin-6-yl)benzamide] | < 0.5 µM | < 0.5 µM | < 5 µM |
| O=C(c1ccc(-c2ccc3ncc(C#Cc4cc(NCc5ccccc5)nc5[nH]ccc45)n3n2)cc1)N1CCOCC1 [Example 073, (4-(3-((6-(benzylamino)-1H-pyrrolo[2,3-b]pyridin-4-yl)ethynyl)imidazo[1,2-b]pyridazin-6-yl)phenyl)(morpholino)methanone] | < 0.5 µM | < 0.5 µM | < 5 µM |
| O=C(Nc1cc(C#Cc2cnc3ccc(-c4ccc(C(=O)N5CCNCC5)cc4)cn23)ccn1)c1ccccc1 [Example 103, (N-(4-((6-(4-(piperazine-1-carbonyl)phenyl)imidazo[1,2-a]pyridin-3-yl)ethynyl)pyridin-2-yl)benzamide)] | < 0.5 µM | < 0.5 µM | < 5 µM |
| O=C(CCl)Nc1cc(C#Cc2cnc3ccc(-c4ccc(C(=O)N5CCOCC5)cc4)nn23)ccn1 [Example 043] | < 0.5 µM | < 0.5 µM | < 5 µM |
| O=C(c1ccc(-c2ccc3ncc(C#Cc4ccnc5[nH]ncc45)n3c2)cc1)N1CCOCC1 [Example 097, (4-(3-((1H-pyrazolo[3,4-b]pyridin-4-yl)ethynyl)imidazo[1,2-a]pyridin-6-yl)phenyl)(morpholino)methanone] | < 0.5 µM | < 0.5 µM | < 5 µM |
| O=C(c1ccc(-c2ccc3ncc(C#Cc4ccncc4)n3c2)cc1)N1CCOCC1 [Example 094] | < 0.5 µM | < 0.5 µM | < 5 µM |
| CN1CCN(C(=O)c2ccc(-c3ccc4ncc(C#Cc5ccccc5)n4n3)cc2)CC1 [Example 002, (4-methylpiperazin-1-yl) (4-(3-(phenylethynyl)imidazo[1,2-b]pyridazin-6-yl)phenyl)methanone] | < 0.5 µM | < 0.5 µM | < 5 µM |
| CC(=O)Nc1cc(C#Cc2cnc3ccc(-c4ccc(C(=O)N5CCNCC5)cc4)cn23)ccn1 [Example 101, N-(4-((6-(4-(piperazine-1-carbonyl)phenyl)imidazo[1,2-a]pyridin-3-yl)ethynyl)pyridin-2-yl)acetamide] | < 0.5 µM | < 0.5 µM | < 5 µM |
| Cc1cnccc1C#Cc1cnc2ccc(-c3ccc(C(=O)N4CCOCC4)cc3)cn12 [Example 095, (4-(3-((3-methylpyridin-4-yl)ethynyl)imidazo[1,2-a]pyridin-6-yl)phenyl) (morpholino)methanone] | < 0.5 µM | < 0.5 µM | < 5 µM |
| Nc1cc(C#Cc2cnn3ccc(-c4ccc(C(=O)N5CCOCC5)cc4F)nc23)ccn1 [Example 123, (4-(3-((2-aminopyridin-4-yl)ethynyl)pyrazolo[1,5-a]pyrimidin-5-yl)-3-fluorophenyl)(morpholino) methanone formic acid salt] | < 0.5 µM | < 0.5 µM | < 5 µM |
| CN1CCN(C(=O)c2ccc(-c3cn4c(C#Cc5ccccc5)cnc4cn3)cc2)CC1 [Example 089, (4-methylpiperazin-1-yl) (4-(3-(phenylethynyl)imidazo[1,2-a]pyrazin-6-yl)phenyl)methanone] | < 0.5 µM | < 0.5 µM | < 5 µM |
| O=C(c1ccc(-c2ccc3ncc(C#Cc4ccnc(Nc5ccccc5)c4)n3n2)cc1)N1CCOCC1 [Example 051, morpholino(4-(3-((2-(phenylamino)pyridin-4-yl)ethynyl)imidazo[1,2-b]pyridazin-6-yl)phenyl)methanone] | < 0.5 µM | < 0.5 µM | < 5 µM |
| O=C(c1ccc(-c2ccc3ncc(C#Cc4ccnc5[nH]ccc45)n3c2)cc1)N1CCOCC1 [Example 099, (4-(3-((1H-pyrrolo[2,3-b]pyridin-4-yl)ethynyl)imidazo[1,2-a]pyridin-6-yl)phenyl)(morpholino)methanone] | < 0.5 µM | < 0.5 µM | < 5 µM |
| CC(=O)Nc1cccc(C#Cc2cnc3ccc(-c4ccc(C(=O)N5CCOCC5)cc4)nn23)c1 [Example 013, N-(3-((6-(4-(morpholine-4-carbonyl)phenyl)imidazo[1,2-b]pyridazin-3-yl)ethynyl)phenyl)acetamide] | < 0.5 µM | < 0.5 µM | < 5 µM |
